Patent US9295697B2, “Episomal reprogramming with chemicals” (Cellular Dynamics International, Inc., priority 2009, dated 2016)

Tests used:
[1] = system: human foreskin fibroblasts; test: Episomal reprogramming of human foreskin fibroblasts with small molecules on MEF feeder cells, alkaline phosphatase positive colonies (Example 2); assay type: cell-based
Procedure: FIGS. 5A-5C. Improving episomal reprogramming efficiency with small molecules. FIG. 5A. Effects of PD0325901 (P, 0.5 μM), CHIR99021(C, 3 μM), A-83-01(A, 0.5 μM), hLIF (L, 1000 U/ml) and HA-100 (H, 10 μM) on episomal reprogramming. FIG. 5B Temporal requirement of small molecule treatment for improved episomal reprogramming. Transfected human foreskin fibroblasts were plated to MEF feeder cells. MEF-conditioned human ESC medium supplemented with 100 ng/ml bFGF (CM100) and small molecules was used to support reprogramming. Alkaline phosphatase positive iPSC colonies were counted on day 22-23 post-transfection. The number of iPSC colonies was from ˜0.33×10^6 input cells. Data shown are mean±standard error (s.e.m.) (n=3). FIG. 5C. Differentiation of the newly derived iPSCs (p3) in the presence of small molecules. […] The addition of bFGF in the culture medium had no effect. Black arrow: undifferentiated iPSC colonies; white arrows: differentiated colonies. Scale bars: 100 μm.
FIGS. 6A-6D. Developing feeder-free conditions for episomal reprogramming. FIG. 6A. Effects of MEF feeder cells, Matrigel™ and culture media on episomal reprogramming. Transfected human foreskin fibroblasts (p6) were plated to MEF feeder cell-seeded or Matrigel™-coated 10-cm dishes, and subjected to different reprogramming culture conditions. Alkaline phosphatase positive (AP^+) colonies were counted on day 18-21 post-transfection. The number of AP+ colonies was from ˜0.33×10^6 input cells. Data shown are mean±s.e.m. (n=3). N2B27: DMEM/F12 medium supplemented with N-2 and B-27; N2B27-100: N2B27 medium supplemented with 100 ng/ml bFGF. *marks piPSCs. FIG. 6B. Bright-field images of a piPSC colony from test 2 and a human ESC-like iPSC colony from test 1, 3 and 4. Scale bars: 100 μm. FIG. 6C. Quantitative RT-PCR analysis of OCT4 and NANOG expression in piPSC clone 1 to 4 (p3). Total: both endogenous and transgene expression. Human H1 ESCs (H1ESC, p32) were used as a control. Data shown are mean±s.e.m. (n=3). FIG. 6D. Temporal requirement of small molecule treatment for feeder-free episomal reprogramming using defined culture media. Transfected human foreskin fibroblasts (p7) were plated to Matrigel™-coated 10-cm dishes. N2B27-100 medium supplemented with PCALH was used to support reprogramming for different time windows (stage 2) followed by mTeSR1 for expansion. Alkaline phosphatase positive iPSC colonies were counted on day 22 post-transfection. The number of iPSC colonies was from ˜0.33×10^6 input cells. Data shown are mean±s.e.m. (n=3).
Episomal reprogramming vectors containing expression cassettes for human OCT4, SOX2, NANOG, LIN28, c-MYC, KLF4 and SV40LT transgenes were as previously described (Yu et al., 2009). Specifically, vector pEP4EO2SCK2MEN2L and pEP4EO2SET2K (combination 4) were used for reprogramming optimization. About 7.3 μg of vector pEP4EO2SCK2MEN2L and 3.2 μg of pEP4EO2SET2K were co-transfected into human neonatal foreskin fibroblasts via nucleofection (NHDF-VPD-1001 with U-20 program, Amaxa, Walkersville, Md.). Transfected fibroblasts (˜1.0×10^6 cells per nucleofection) were plated directly to 3×10-cm MEF-seeded dishes or 3×10-cm Matrigel™-coated dishes in fibroblast culture medium. The next day after transfection, fibroblast medium was replaced with MEF-conditioned human ESC medium supplemented with 100 ng/ml zbFGF (CM100), or chemically defined N2B27 medium (N2B27), or N2B27 medium supplemented with 100 ng/ml zbFGF (N2B27-100), or mTeSR1. The N2B27 medium consists of DMEM/F12 culture medium supplemented with N-2 supplement (1×, Invitrogen), B-27 supplement (1×, Invitrogen), 0.1 mM non-essential amino acids, 1 mM GlutaMAX, and 0.1 mM β-mercaptoethanol. Where applied, small molecules PD0325901 (P, 0.5 μM), CHIR99021(C, 3 μM), A-83-01(A, 0.5 μM) (all from Stemgent, San Diego, Calif.), hLIF (L, 1000 U/ml, Millipore, Billerica, Mass.) and HA-100 (H, 10 μM) were added to reprogramming culture. Culture medium was refreshed every two days. […]

[2] = system: human foreskin fibroblasts; test: Episomal reprogramming of human foreskin fibroblasts with chemical compounds on MEF feeders, alkaline phosphatase positive iPS cell colonies (Example 1); assay type: cell-based; conditions: for effect on episomal reprogramming when added to PD0325901, CHIR99021 and A-83-01: in combination with PD0325901 (0.5 μM), CHIR99021 (3 μM), A-83-01 (0.5 μM)
Excerpt: FIGS. 1A-1C. Improving episomal reprogramming of human foreskin fibroblasts with small chemical compounds. FIG. 1A. Episomal reprogramming vectors. pEF: the eukaryotic elongation factor 1α promoter; pCMV: the cytomegalovirus immediate-early promoter. Transgenes and other features of vectors are indicated by different colors as shown. FIG. 1B. Effects of different combinations of chemical compounds on episomal reprogramming efficiency. FF medium: human foreskin fibroblast culture medium; CM: human ES cell culture medium previously conditioned with irradiated mouse embryonic fibroblast feeder cells. bFGF was used at 100 ng/ml final concentration. B: BIX01294 (1 μM); P: PD0325901 (0.5 μM); C: CHIR99021 (3 μM); A: A-83-01 (0.5 μM). Total: total # of alkaline phosphatase positive iPS cell colonies; Large: # of large-size good undifferentiated alkaline phosphatase positive iPS cell colonies. FIG. 1C. Images of a good iPS cell colony obtained by episomal reprogramming in the presence of chemical compounds. Left: bright-field; right: alkaline phosphatase staining.
FIGS. 2A-2B. Improving episomal reprogramming of human foreskin fibroblasts with small chemical compounds. FIG. 2A. Effects of bFGF and different combinations of chemical compounds on episomal reprogramming efficiency. FF medium: human foreskin fibroblast culture medium; CM: human ES cell culture medium previously conditioned with irradiated mouse embryonic fibroblast feeder cells. bFGF was used at 100 ng/ml final concentration. H: HA-100 (10 μM); B: BIX01294 (1 μM); P: PD0325901 (0.5 μM); C: CHIR99021 (3 μM); A: A-83-01 (0.5 μM); L: hLIF (10 ng/ml). Total: total # of alkaline phosphatase positive iPS cell colonies; Large: # of large-size good undifferentiated alkaline phosphatase positive iPS cell colonies. FIG. 2B. Timing of chemical compound treatment on episomal reprogramming efficiency. CM supplemented with bFGF (100 ng/ml) and HA-100 (10 μM) was used in reprogramming culture.
FIGS. 4A-4B. Episomal reprogramming in defined medium supplemented with chemical compounds. FIG. 4A. Effect of different culture medium on episomal reprogramming in the presence of PD0325901 (0.5 μM), CHIR99021 (3 μM), A-83-01 (0.5 μM) and hLIF (10 ng/ml). FF medium: human foreskin fibroblast culture medium; CM: human ES cell culture medium previously conditioned with irradiated mouse embryonic fibroblast feeder cells. bFGF was used at 100 ng/ml final concentration. H: HA-100 (10 μM); B: BIX01294 (1 μM); P: PD0325901 (0.5 μM); C: CHIR99021 (3 μM); A: A-83-01 (0.5 μM); L: hLIF (10 ng/ml). Total: total # of alkaline phosphatase positive iPS cell colonies; Large: # of large-size good undifferentiated alkaline phosphatase positive iPS cell colonies. FIG. 4B. Sketch of the three-step reprogramming process for the derivation of normal human ES cell-like iPS cells and piPS cells.
For episomal reprogramming of human somatic cells, human foreskin fibroblasts, episomal vectors (FIG. 1A, 7.3 μg of pEP4EO2SCK2MEN2L and 3.2 μg of pEP4EO2SET2K) (Yu et al., 2009) were cotransfected into 1×10^6 cells via nucleofection (NHDF-VPD-1001 with program U-20, Amaxa, Walkersville, Md.). Transfected foreskin fibroblasts from each nucleofection were directly plated to 3×10-cm MEF-seeded dishes in fibroblast culture medium. For adult skin fibroblasts, 7.3 μg of pEP4EO2SCK2MEN2L and 6.4 μg of pEP4EO2SET2K were cotransfected into 1×10^6 cells via nucleofection (NHDF-VPD-1001 with program U-20, Amaxa). Transfected adult skin fibroblasts from each nucleofection were directly plated to 1×10-cm MEF-seeded dish in fibroblast culture medium due to lower cell survival. […]

[3] = LIF added to PD0325901, CHIR99021 and A-83-01

Cc1cccc(-c2nn(C(=S)Nc3ccccc3)cc2-c2ccnc3ccccc23)n1 [A-83-01, 3-(6-Methyl-2-pyridinyl)-N-phenyl-4-(4-quinolinyl)-1H-pyrazole-1-carbothioamide]
effect on episomal reprogramming, alone / on its own ([1]; CM100, MEF feeder cells): minimal effect | effect on episomal reprogramming, together with the MEK inhibitor PD0325901 ([1]; CM100, MEF feeder cells): minimal effect

hLIF: human leukemia inhibitory factor
effect of hLIF on episomal reprogramming efficiency ([1]; hLIF 1000 U/ml): did not significantly improve | proliferation of reprogramming intermediates ([1]; hLIF 1000 U/ml): increased | first appearance of iPS cells, day post transfection [2, 3]: ~14 days | first appearance of iPS cells, earlier by [2, 3]: 3 to 4 days | large iPS cell colonies [2, 3]: more large iPS cell colonies | effect on episomal reprogramming when added to PD0325901, CHIR99021 and A-83-01 [2]: further facilitated

Cc1ccc2c(c1)C(=O)C1(O)CCN(c3ccccc3)C1=N2 (centres unmarked) [blebbistatin]
replacement of HA-100 in episomal reprogramming [1]: could not be replaced

COc1cc2nc(N3CCCN(C)CC3)nc(NC3CCN(Cc4ccccc4)CC3)c2cc1OC [BIX01294]
effect on reprogramming by episomal vectors, compound on its own ([2]; BIX01294 1 μM): could improve reprogramming | effect on episomal reprogramming when added to PD0325901, CHIR99021 and A-83-01 [2]: no or only slight benefit

Cc1cncc2cccc(S(=O)(=O)N3CCCNC[C@@H]3C)c12 [H-1152]
replacement of HA-100 in episomal reprogramming [1]: could not be replaced

O=S(=O)(c1cccc2cnccc12)N1CCNCC1 [HA-100]
effect on episomal reprogramming, alone / on its own ([1]; CM100, MEF feeder cells): minimal effect | episomal reprogramming efficiency in the presence of PD0325901, CHIR99021, A-83-01 and hLIF ([1]; HA-100 10 μM): further increased
